Measured values taken from patent US20260234188A1, “CHEMOKINE-BINDING PEPTIDES” (Oxford University Innovation Limited, priority 2022, published 2026).
Entries after “also recorded” stand apart in the source; their conditions may differ.

Each substance was assayed on panel of up to 42 human chemokines (assay: Phage-display next generation sequencing screen of overlapping hexadecapeptide libraries, chemokines displayed on streptavidin beads). Conditions: log2E greater than 5, chemokines named by first part of UniProt Entry Name.
Assay type: binding
Excerpt: FIG. 1. Exemplar results from phage display screens. Phage-display libraries were constructed and analysed as described in (McLaughlin, 2013) (Tonikian, 2007). […] FIG. 1A, CC chemokines against evasin A library. FIG. 1B, CXC chemokines against the evasin B library. FIG. 1C, CXC and CX3C chemokines against the viral chemokine binding protein library. FIG. 1D, CXC chemokines against the chemokine library. […] Identified hexadecapeptides were mapped to the position in the originating protein (x-axis) and to fold enrichment (log 2 E, left y-axis). Regions of interest (ROI) were defined where the cumulative residue log 2 E, (clog 2 E:r, right y-axis) exceeds the 95% upper confidence interval of the median clog 2 E:r for the entire protein (indicated as a horizontal dotted line in each panel). Proteins are referred to by their UniProt ID.
Hexadecapeptides were identified using a phage-display next generation sequencing approach (McLaughlin, 2013). Libraries containing a total of 55662 overlapping peptides (from the tick chemokine binding proteins shown in Tables 3A and 3B, the viral chemokine binding proteins shown in Table 3C, the human chemokines shown in Table 3 E, and the human/viral chemokine receptors and other chemokine-binding proteins shown in Table 3D) were first constructed, and then screened against a panel of up to 42 human chemokines, as shown in Table 3F.

Row | Substance | Chemokines Bound
1 | CR2586 (CILVWLLAFCVSLPDT) | CCL20, CCL28,; also recorded: CXL10, CXL11,; also recorded: CXL14
2 | CR26231 (VVTSVITWLVAVFASV) | CCL11, CCL17, and CCL18, CCL2, and CCL20, CCL25, and CCL8, CXL10, and CXL11, CXL14, and IL8
3 | CR24593 (VFLLSLLGNSLVMLVI) | CCL22, CCL25, and CXL10, CXL11, and SDF1, CXL13, and IL8
4 | CR24594 (VFLLSLVGNSLVLWVL) | CCL22, X3CL1, and CXL11, CXL13, and IL8
5 | CR5475 (FLFHLAVADLLLVFIL) | CCL20, CCL22,; also recorded: CCL28, CXL10,; also recorded: CXL11, SDF1,; also recorded: CXL14
6 | CR362 (AEIYEYLFFFSFFFLA) | CCL22, CXL11,; also recorded: CXL13
7 | CR23915 (TVFLSIFYSVIFAIGL) | CCL17, CCL18,; also recorded: CCL19, CCL2,; also recorded: CCL20, CCL22,; also recorded: CCL25, CCL28,; also recorded: CCL8, X3CL1,; also recorded: CXL10, CXL11,; also recorded: SDF1, CXL13,; also recorded: CXL14, IL8
8 | CR26536 (WGWVLGDFLCKLLNMI) | CCL1, CCL11,; also recorded: CCL17, CCL18,; also recorded: CCL20, CCL22,; also recorded: CCL28, CCL5,; also recorded: X3CL1, CXL10,; also recorded: SDF1, IL8
9 | CR4756 (FASDFVLMWAVFFMTV) | CCL17, X3CL1,; also recorded: CXL10
10 | CR25375 (VLVIGSLVARWLLGIQ) | CCL18, CCL19,; also recorded: CCL20
11 | CR27514 (YLYVYLDIFSVVSVSL) | CCL1, CCL19, and SDF1
12 | CR2553 (CGIITSVLAWVTAILA) | CCL11, CCL2, and CCL20, CCL22, and CCL28, CCL8, and X3CL1, CXL10, and SDF1, CXL14, and IL8
13 | CR24367 (VCILVWLLAFCVSLPD) | CCL11, CCL17,; also recorded: CCL18, CCL19,; also recorded: CCL20, CCL22,; also recorded: CCL25, CCL28,; also recorded: CXL10, CXL11,; also recorded: SDF1, CXL13,; also recorded: CXL14, IL8
14 | CR26093 (VVCILVWLLAFCVSLP) | CCL20, X3CL1,; also recorded: CXL10, IL8
15 | CR4753 (FAQLVYFIYHAVASYS) | CCL2, CXL13, and IL8
16 | CR3146 (DFLSKLLNMIFSISLY) | CCL17, CCL18,; also recorded: CCL19, CCL2,; also recorded: CCL20, CXL14
17 | CR2301 (AWLPYYIGISIDSFIL) | CCL17, CCL19,; also recorded: CCL20
18 | CR26232 (VVTSVITWVVAVFASL) | CCL17, CCL18,; also recorded: CCL28, CCL8,; also recorded: X3CL1, CXL10,; also recorded: SDF1, CXL14
19 | CR2524 (CFLWGIFPTVIFSYFY) | CCL22, CCL25, and CXL13, CXL14, and IL8
20 | CR4712 (FAIVVAYFLSWGPYNF) | CCL18, CCL19,; also recorded: CCL20, CCL22,; also recorded: CCL25, SDF1
21 | CR24702 (VFYSLLFVFSLLGNSL) | CCL17, CCL18, and CCL19, CCL20, and CCL22, CCL25, and CCL5, X3CL1, and CXL11, CXL14, and IL8
22 | CR23950 (TVLATFKILICIVWGV) | CCL18, CCL19,; also recorded: CCL20, CCL25,; also recorded: SDF1, IL8
23 | CR26850 (WVVVFQFQHIMVGLIL) | CCL1, CCL19, and CCL20, CCL28, and SDF1
24 | CR4760 (FASFYLLDFILALVGN) | CCL22, CXL10,; also recorded: CXL11, SDF1,; also recorded: CXL13, IL8
25 | CR26799 (WVFIFSSIQLATVVFL) | CCL18, CCL19, and CCL20, CCL22, and CCL28, X3CL1, and CXL10, CXL11, and IL8
26 | CR4845 (FDFMILNLSFCDLFIC) | X3CL1, CXL13, and IL8
27 | CR5175: chemokine binding peptide of Table 5A used in FIG. 5 combinations (FGVWLMSIVGTFLNML) | CCL17, CCL22, and IL8
28 | CR5236 (FIFVIGMIANSVVVWV) | CCL19, CCL28,; also recorded: CXL11, SDF1,; also recorded: CXL13, IL8

Same assay, conditions: log2E greater than 5, chemokines named by first part of UniProt Entry Name, peptides binding complement C5a (control) excluded

Row | Substance | Chemokines Bound
29 | CR6044 (FSALVTLITSLFGSIF) | CCL2, X3CL1,; also recorded: CXL10, IL8
30 | CR8784 (IFAIVVAYFLSWGPYN) | CCL1, CCL15, and CCL17, CCL18, and CCL2, CCL20, and CCL22, CCL25, and CCL28, X3CL1, and CXL10, CXL11, and SDF1, CXL14, and IL8
31 | CR7819 (GVWLMAIVGTFLNVLV) | CCL17, CCL18, and CCL2, CCL20, and CCL22, CXL11, and SDF1, CXL13, and IL8
32 | EDDYTAYAPLTCYFTN [HD842] | CCL1, CCL17, and CCL4, CCL5, and CCL8
33 | VP7819 (RLEELYLTVASMFERL) | CCL1, CCL11,; also recorded: CCL17, CCL19,; also recorded: CCL2, CCL22,; also recorded: CCL28, CXL10
34 | CR7367 (GMPPADEDYSPCMLET) | CCL11, CCL18,; also recorded: CCL19, CCL20
35 | CR7666 (GSVSLVNLLTIIGCLW) | CCL17, CCL20,; also recorded: CCL25
36 | CR6746 (GDFLAKLLNMIFSISL) | CCL20, CCL25,; also recorded: CCL28
37 | CR6604 (FYVAMFASLCFITEIA) | CXL10, CXL11, and SDF1, CXL13, and IL8
38 | CR9291 (ILALVGNTLALWLFIR) | CCL2, CCL22,; also recorded: CCL25, IL8
39 | CR5775 (FMIFAYTFIVKTLVQA) | CCL17, CCL18, and CCL28, X3CL1, and CXL11, SDF1, and CXL13, CXL14, and IL8
40 | CR6098 (FSIIAVFYFLLARAIS) | CCL17, CCL20,; also recorded: CCL22, CXL10,; also recorded: CXL11, CXL13,; also recorded: CXL14, IL8
41 | CR9282 (ILAFFAAWLPYYIGIS) | CCL11, CCL18,; also recorded: X3CL1, CXL10,; also recorded: CXL11, CXL13
42 | VP11559 (YLYILFLSCIIINGRD) | CXL10, CXL11,; also recorded: CXL13, IL8
43 | VP485 (AMMLSLLIAGMSLMLG) | CCL11, CCL25, and CCL28, CCL5, and CXL11, CXL14, and IL8
44 | CR6836 (GFFIPLMFMIFSYTFI) | CCL22, CXL14, and IL8
45 | CR9192 (IISLVVWGLSVIISSS) | CCL18, CXL10, and CXL13, CXL14, and IL8

Same assay, conditions: log2E greater than 5, chemokines named by first part of UniProt entry name, C5a (control) binders excluded

Row | Substance | Chemokines Bound
46 | CR20481 (SGIFFIILLTIDRYLA) | CCL1, CCL19,; also recorded: CCL20, CCL22,; also recorded: CCL25, CCL28,; also recorded: X3CL1, CXL10,; also recorded: CXL11, SDF1
47 | CR1004 (ALAFIYVLMFLCNAIG) | CCL17, CCL18,; also recorded: CCL19, CCL20,; also recorded: CXL10, CXL14
48 | CR22271 (SWIISFSVWMAAILLS) | CCL1, CCL17,; also recorded: CXL10
49 | CR21349: chemokine binding peptide of Table 5A used in FIG. 5 combinations (SNVTFTGLISAFSWFM) | CCL11, CCL2,; also recorded: CCL3, CCL4,; also recorded: CCL5, CCL8
50 | CR15967 (MVWANLLVFVVSFLPL) | CCL1, CXL10, and SDF1
51 | CR1475 (ANVTFTGLIAAFSWFM) | CCL2, CCL22,; also recorded: CXL11, CXL13
52 | CR11478 (LAFIYVLMFLANAIGN) | CCL1, CCL20,; also recorded: CXL11, SDF1,; also recorded: CXL13, CXL14
53 | CR10275 (IYLLNLAISDLFFLLT) | CCL17, CCL18,; also recorded: CCL25, CXL10,; also recorded: CXL13
54 | CR12308 (LFTLYVSTLDFCIVFI) | CCL20, CCL22, and CCL28, CXL10, and SDF1
55 | CR12432 (LGIILFSYVEILRTLF) | CCL17, CCL18, and CXL10, CXL11, and IL8
56 | CR11295 (KVLWALQYIGLGFFAA) | CCL17, CCL18,; also recorded: CCL2, CXL10,; also recorded: SDF1, CXL14
57 | CR10825 (KLIFAIVVAYFLSWGP) | CCL17, CCL28,; also recorded: CXL14
58 | CK1301 (FIADYFETSSQCSKPS) | CCL20, CXL10,; also recorded: CXL14, IL8
59 | CR14780 (LVFVIGLVGNILVVLV) | CCL17, CCL18,; also recorded: CCL19, CCL20,; also recorded: CCL22, CCL25,; also recorded: CCL28, X3CL1,; also recorded: CXL10, CXL14
60 | CR13507 (LLTWLAGLIFSVPAAV) | CCL1, CCL11,; also recorded: CCL17, CCL18,; also recorded: CCL19, CCL2,; also recorded: CCL20, CCL22,; also recorded: CCL25, CCL28,; also recorded: X3CL1, CXL10,; also recorded: CXL11, SDF1,; also recorded: CXL14, IL8
61 | CK3274 (LRCVCLQTTQGVHPKM) | X3CL1, CXL10,; also recorded: CXL11
62 | CR1003 (ALAFIYVLMFLANAIG) | CCL17, CCL18, and CCL19, CCL20, and CCL28, X3CL1, and CXL10, SDF1, and IL8
63 | CR2158 (AVKIVFSFIWGVLPTM) | CCL18, CCL20,; also recorded: SDF1, CXL14
64 | CR2129 (AVFYALLFVFSLLGNS) | CCL15, CCL18, and CCL19, CCL20, and CCL25, CCL28, and SDF1
65 | CR15063 (LWVVVFQFQHIMVGLI) | CCL17, CCL18, and CCL19, CCL2, and CCL20, CCL22, and CCL28, CCL8, and X3CL1, CXL10, and CXL11, SDF1, and CXL13, CXL14, and IL8
66 | CR11719 (LATFKILIAIVWGVMP) | CCL1, CCL18,; also recorded: CCL20, CCL22,; also recorded: CCL25, CCL28,; also recorded: CXL10, SDF1
67 | CR21236 (SMILESLFAALVTLIT) | CCL22, CXL10,; also recorded: CXL11, SDF1,; also recorded: CXL13, IL8
68 | CR20981 (SLFSALVTLITSLFGS) | CCL1, CCL11,; also recorded: CCL17, CCL18,; also recorded: CCL2, CCL25,; also recorded: CCL8, X3CL1,; also recorded: CXL10, IL8
69 | CR11907: chemokine binding peptide of Table 5A used in FIG. 5 combinations (LDFILALVGNTLALWL) | CCL11, CCL18, and CCL2
70 | CR12330 (LFVMLFSYGFTLRTLF) | CCL17, CCL18, and CCL20, CCL22, and CCL28, CXL14, and IL8
71 | CR22786 (TFTGLIAAFSWFMLSL) | CCL11, CCL17,; also recorded: CCL18, CCL2,; also recorded: CCL20, CCL22,; also recorded: CCL28, X3CL1,; also recorded: SDF1, IL8
72 | CR18189 (QHNLFFLLSLGIILFC) | CCL17, CCL18,; also recorded: CCL22, CCL25,; also recorded: X3CL1, CXL14
